According to PubChem BioAssay (NCI):
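Following 48 hours of exposure in 96-well plates, responses at five concentrations were used to interpolate endpoints linearly. Abbreviation: GI50, concentration required for 50% inhibition of growth. TGI: total growth inhibition.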

Columns and labels:
Test in all cases: growth of human tumour cells (NCI), 48 h
[1] = system: SNB-19 CNS
[2] = system: CCRF-CEM leukemia
[3] = system: RXF 393 renal
[4] = system: KM20L2 colon
[5] = system: RPMI-8226 leukemia
[6] = system: UACC-62 melanoma
[7] = system: SW-620 colon
[8] = system: DMS 273 small cell lung
[9] = system: OVCAR-3 ovarian
[10] = system: COLO 205 colon
[11] = system: KM12 colon
[12] = system: HOP-18 NSCLC
[13] = system: SF-539 CNS
[14] = system: HT29 colon
[15] = system: ACHN renal
[16] = system: NCI-H460 lung
[17] = system: K-562 leukemia
[18] = system: HOP-92 NSCLC
[19] = system: SR leukemia
[20] = system: SN12C renal
[21] = system: MOLT-4 leukemia
[22] = system: MALME-3M melanoma
[23] = system: SK-OV-3 ovarian
[24] = system: A549 NSCLC
[25] = system: RXF-631 renal
[26] = system: HCC-2998 colon
[27] = system: DMS 114 small cell lung
[28] = system: NCI-H23 lung
[29] = system: HCT-116 colon
[30] = system: LXFL 529 NSCLC
[31] = system: HOP-62 NSCLC
[32] = system: UO-31 renal
[33] = system: OVCAR-5 ovarian
[34] = system: SK-MEL-5 melanoma
[35] = system: DLD-1 colon
[36] = system: OVCAR-4 ovarian
[37] = system: EKVX NSCLC
[38] = system: OVCAR-8 ovarian
[39] = system: 786-0 renal
[40] = system: LOX IMVI melanoma
[41] = system: M19-MEL melanoma
[42] = system: SK-MEL-28 melanoma
[43] = system: HL-60(TB) leukemia
[44] = system: CAKI-1 renal
[45] = system: SNB-78 CNS
[46] = system: SF-295 CNS
[47] = system: IGROV1 ovarian
[48] = system: U251 CNS
[49] = system: M14 melanoma
[50] = system: SK-MEL-2 melanoma
[51] = system: TK-10 renal
[52] = system: SF-268 CNS
[53] = system: NCI-H226 lung
[54] = system: UACC-257 melanoma

In the case of `CC[O-].CC[O-].[O-]c1ccccc1C=NC12CC3CC(CC(C3)C1)C2.[O-]c1ccccc1C=NC12CC3CC(CC(C3)C1)C2.[Ti+4]`, the GI50 [1] is reported as > 100 µM, the TGI [1] is reported as > 100 µM and the GI50 [2] is reported as 11 µM. The TGI [2] was > 100 µM, the GI50 [3] was 53.9 µM and the TGI [3] was > 100 µM. The GI50 [4] was 45.6 µM, the TGI [4] was > 100 µM and the GI50 [5] was 57.6 µM. For the same compound, the TGI [5] was > 100 µM, the GI50 [6] was 19.6 µM and the TGI [6] was > 100 µM. For the same compound, the GI50 [7] was > 100 µM, the TGI [7] was > 100 µM and the GI50 [8] was > 100 µM. For the same compound, the TGI [8] was > 100 µM, the GI50 [9] was > 100 µM and the TGI [9] was > 100 µM. The GI50 [10] was 67.3 µM, the TGI [10] was > 100 µM and the GI50 [11] was > 100 µM. The TGI [11] was > 100 µM, the GI50 [12] was 85.5 µM and the TGI [12] was > 100 µM. For the same compound, the GI50 [13] was > 100 µM, the TGI [13] was > 100 µM and the GI50 [14] was > 100 µM. The TGI [14] was > 100 µM, the GI50 [15] was > 100 µM and the TGI [15] was > 100 µM. The GI50 [16] was > 100 µM, the TGI [16] was > 100 µM and the GI50 [17] was 31.4 µM. For the same compound, the TGI [17] was > 100 µM, the GI50 [18] was 34.4 µM and the TGI [18] was > 100 µM. For the same compound, the GI50 [19] was 29.2 µM, the TGI [19] was > 100 µM and the GI50 [20] was 86.4 µM. For the same compound, the TGI [20] was > 100 µM, the GI50 [21] was > 100 µM and the TGI [21] was > 100 µM. The GI50 [22] was 64.2 µM, the TGI [22] was > 100 µM and the GI50 [23] was > 100 µM. The TGI [23] was > 100 µM, the GI50 [24] was > 100 µM and the TGI [24] was > 100 µM. For the same compound, the GI50 [25] was 29.4 µM, the TGI [25] was > 100 µM and the GI50 [26] was > 100 µM. The TGI [26] was > 100 µM, the GI50 [27] was 23.4 µM and the TGI [27] was > 100 µM. The GI50 [28] was 50 µM, the TGI [28] was > 100 µM and the GI50 [29] was 39.6 µM. The TGI [29] was > 100 µM, the GI50 [30] was 23.5 µM and the TGI [30] was > 100 µM. The GI50 [31] was > 100 µM, the TGI [31] was > 100 µM and the GI50 [32] was 92.3 µM. The TGI [32] was > 100 µM, the GI50 [33] was > 100 µM and the TGI [33] was > 100 µM. For the same compound, the GI50 [34] was 19.9 µM, the TGI [34] was > 100 µM and the GI50 [35] was 11.1 µM. For the same compound, the TGI [35] was > 100 µM, the GI50 [36] was > 100 µM and the TGI [36] was > 100 µM. For the same compound, the GI50 [37] was > 100 µM, the TGI [37] was > 100 µM and the GI50 [38] was > 100 µM. For the same compound, the TGI [38] was > 100 µM, the GI50 [39] was > 100 µM and the TGI [39] was > 100 µM. The GI50 [40] was 57.8 µM, the TGI [40] was > 100 µM and the GI50 [41] was > 100 µM. For the same compound, the TGI [41] was > 100 µM, the GI50 [42] was > 100 µM and the TGI [42] was > 100 µM. The GI50 [43] was 52.4 µM, the TGI [43] was > 100 µM and the GI50 [44] was > 100 µM. The TGI [44] was > 100 µM, the GI50 [45] was > 100 µM and the TGI [45] was > 100 µM. The GI50 [46] was > 100 µM, the TGI [46] was > 100 µM and the GI50 [47] was > 100 µM. For the same compound, the TGI [47] was > 100 µM, the GI50 [48] was > 100 µM and the TGI [48] was > 100 µM. For the same compound, the GI50 [49] was > 100 µM, the TGI [49] was > 100 µM and the GI50 [50] was 35.8 µM. The TGI [50] was > 100 µM, the GI50 [51] was > 100 µM and the TGI [51] was > 100 µM. The GI50 [52] was 92.5 µM, the TGI [52] was > 100 µM and the GI50 [53] was > 100 µM. For the same compound, the TGI [53] was > 100 µM, the GI50 [54] was > 100 µM and the TGI [54] was > 100 µM.
